Tests used:
[1] = biological target: T1, EphA1 (P21709) (Homo sapiens, UniProt P21709); assay: PamChip tyrosine kinase microarray; type: biochemical; conditions: 0.1 µM, HL60 lysate
T1 construct: purchased PamGene (PamChip PTK array, Upstream Kinase Analysis)
T1 sequence (P21709 26-976): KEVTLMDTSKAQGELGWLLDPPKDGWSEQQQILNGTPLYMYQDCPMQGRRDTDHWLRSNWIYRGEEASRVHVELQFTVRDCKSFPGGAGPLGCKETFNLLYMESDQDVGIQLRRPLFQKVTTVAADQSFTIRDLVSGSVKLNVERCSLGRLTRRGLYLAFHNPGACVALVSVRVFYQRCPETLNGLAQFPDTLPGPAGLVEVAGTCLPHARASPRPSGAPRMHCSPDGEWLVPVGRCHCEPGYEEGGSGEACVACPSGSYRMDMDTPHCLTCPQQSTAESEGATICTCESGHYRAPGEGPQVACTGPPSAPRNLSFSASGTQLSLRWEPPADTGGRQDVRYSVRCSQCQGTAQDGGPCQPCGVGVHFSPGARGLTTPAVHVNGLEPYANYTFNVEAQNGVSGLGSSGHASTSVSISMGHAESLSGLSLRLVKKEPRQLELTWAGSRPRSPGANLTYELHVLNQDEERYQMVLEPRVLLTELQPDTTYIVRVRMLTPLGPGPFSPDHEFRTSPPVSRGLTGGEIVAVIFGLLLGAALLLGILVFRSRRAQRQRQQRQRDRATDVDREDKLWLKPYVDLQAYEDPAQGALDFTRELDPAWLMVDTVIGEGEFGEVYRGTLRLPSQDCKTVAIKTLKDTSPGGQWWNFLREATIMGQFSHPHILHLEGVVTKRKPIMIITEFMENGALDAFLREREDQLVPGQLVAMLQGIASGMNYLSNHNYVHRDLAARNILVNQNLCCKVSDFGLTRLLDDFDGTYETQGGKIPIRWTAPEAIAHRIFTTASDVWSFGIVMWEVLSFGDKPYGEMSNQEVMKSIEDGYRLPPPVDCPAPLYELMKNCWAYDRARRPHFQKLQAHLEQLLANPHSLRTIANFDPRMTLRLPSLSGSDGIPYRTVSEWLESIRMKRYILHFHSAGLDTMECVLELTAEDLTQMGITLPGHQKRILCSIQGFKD
Procedure: (§1) The reproducible high potency of KIM-161 on leukemia cell lines was initially speculated to encompass Src tyrosine kinase inhibition. Even so, we also suspected that KIM-161 might be affecting other tyrosine kinases because the HL60 cells are not among the most Src-dependent highly proliferative cells ([Collins, 1987]). Therefore, a profiling of the kinase activities was performed after treatment with KIM-161 using PamChip® tyrosine kinase microarray. This analysis is based on incubation of cell lysate with 3D microarray that projects peptides specific for 143 tyrosine kinases. If a kinase is modified in the cells, it will be detected by phosphorylating its specific peptide in the microarray.
(§2) This test measured the activities of an array of tyrosine kinases of treated HL60 cells compared to the control (untreated cells) after incubation with KIM-161 for 48 h at concentrations of 0.001, 0.01, 0.1, 1.0, 10, and 50 µM. The log fold change (LFC) heat map was initially used to identify significant peptides affected at each concentration (Figure 5).
(§3) An Upstream Kinase Tool was used to generate a putative list of kinases responsible for phosphorylating the phosphosites on the PamChip®. It is an interpretation and is highly dependent on the contents of the underlying phosphorylation databases. Kinase score (Table 2) was used for ranking kinases based on their significance and specificity in terms of the set of peptides used for the corresponding kinase. Kinase statistics indicates the overall change of the peptide set that represents a certain kinase. Kinase statistics value of <0 indicates lower kinase activity in the lysate spiked with the compound and vice versa. Table 2 lists the 20 most changed kinases within treated HL60 cell lysates by 0.1 μM KIM-161.
(§4) Every compound had spiked into a leukemic (AML) cell line HL60 lysate at different concentrations (0.001, 0.01, 0.1, 1, 10, and 50 μM). In addition, DMSO had also spiked at a low concentration (2% v/v) to the HL60 lysate as the control. The samples were profiled on PamGene's tyrosine kinase (PTK) arrays in technical replicates, covering a total of 196 phosphorylation sites. The frozen leukemic HL60 cultured cell pellet was sent to PamGene. At PamGene, the cells were lysed in the presence of the lysis buffer and proteases inhibitor cocktail. The protein concentration was measured using the standard Bradford assay as per the PamGene SOPs. These lysates were further used for generating the PTK activity profiles. For spiking, KIM-161 was received in powder form and dissolved in DMSO at the PamGene facility, followed by storing it at −20°C in small aliquots. PamGene used its in-house bioinformatics toolbox in combination with other methods to generate the hypotheses of signaling pathways.

[2] = biological target: T2, CTK (P42679) (Homo sapiens, UniProt P42679); assay: PamChip tyrosine kinase microarray; type: biochemical; conditions: 0.1 µM, HL60 lysate
T2 construct: purchased PamGene (PamChip PTK array, Upstream Kinase Analysis)
T2 sequence (P42679 1-507): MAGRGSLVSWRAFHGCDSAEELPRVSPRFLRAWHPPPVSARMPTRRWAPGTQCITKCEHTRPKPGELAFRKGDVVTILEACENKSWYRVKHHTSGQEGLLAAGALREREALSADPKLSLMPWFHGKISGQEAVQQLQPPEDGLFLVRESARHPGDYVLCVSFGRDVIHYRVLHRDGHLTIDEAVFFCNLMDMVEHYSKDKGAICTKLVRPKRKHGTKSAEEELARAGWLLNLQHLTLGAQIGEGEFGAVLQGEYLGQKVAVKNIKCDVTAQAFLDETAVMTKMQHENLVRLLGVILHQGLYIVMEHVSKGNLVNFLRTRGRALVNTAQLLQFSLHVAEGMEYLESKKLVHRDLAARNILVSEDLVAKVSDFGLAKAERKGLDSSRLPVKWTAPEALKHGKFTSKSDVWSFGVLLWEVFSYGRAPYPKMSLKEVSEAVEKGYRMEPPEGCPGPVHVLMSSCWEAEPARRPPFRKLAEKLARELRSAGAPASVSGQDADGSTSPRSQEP
Procedure: as §1, §2, §3, §4

## COc1ccc(/C=C2\N=C(C)N(c3ccc(CC(=O)NCc4ccccc4)cc3)C2=O)cc1 [Compound 4c, (Z)-N-Benzyl-2-(4-(4-(4-methoxybenzylidene)-2-methyl-5-oxo-4,5-dihydro-1H-imidazol-1-yl)phenyl)acetamide]
[1]
  Mean Final score (Kinase score): 2.326
  Mean Kinase Statistic: -1.184
  Mean Significance Score: 1.983
  Mean Specificity Score: 0.3263
[2]
  Mean Final score (Kinase score): 2.298
  Mean Kinase Statistic: -1.147
  Mean Significance Score: 2.048
  Mean Specificity Score: 0.2322

Reference: article PMC8766756, “Insights on Cancer Cell Inhibition, Subcellular Activities, and Kinase Profile of Phenylacetamides Pending 1H-Imidazol-5-One Variants” (Frontiers in Pharmacology, 2022)
